Data on five molecules can be found in patent US20220324815A1, “2-PHENOXY-PYRIMIDINE DERIVATIVES AS HERBICIDAL COMPOUNDS” (SYNGENTA CROP PROTECTION AG, priority 2019, published 2022).

Holding throughout (type): in vivo
What all share (settings): 250 g/ha unless otherwise stated, evaluated after 13 days, five-point scale

Test [1] deals with Amaranthus retoflexus (AMARE). The experiment in a line: Test 1 glasshouse herbicide test, pre-emergence application (Table B2). In outline:
(§1)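 Score is % phytotoxicity after 13 days, binned 1 (0–20%) to 5 (81–100%). Compound given at 250 g/ha unless stated, as acetone/water (50:50) spray with 0.5% Tween 20, one day post-sowing (pre-emergence) or after 8 days' growth (post-emergence); glasshouse at 24/16 °C day/night, 14 h light, 65% humidity.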

The subject of test [2] is Echinochloa crus-galli (ECHCG). Described as above. Put shortly:
as §1

In test [3] the test system is Setaria faberi (SETFA). The test is described as above. In outline: as §1
Test [4] has as its system Ipomoea hederacea (IPOHE). The description is as above. In outline: as §1
Test [5] deals with Solanum nigrum (SOLNI). Described as above. In outline: as §1
Test [6] deals with Lolium perenne (LOLPE). The test is described as above. In outline: as §1
In test [7] the test system is Amaranthus retoflexus (AMARE). The experiment in a line: Test 1 glasshouse herbicide test, post-emergence application (Table B1). Put shortly:
as §1

For test [8], the system named is Echinochloa crus-galli (ECHCG). Described as above. Put shortly:
as §1

In test [9] the test system is Setaria faberi (SETFA). The test is described as above. Put shortly: as §1
Test [10] relates to Ipomoea hederacea (IPOHE). The test is described as above. Put shortly: as §1
In test [11] the test system is Solanum nigrum (SOLNI). The test is described as above. Put shortly:
as §1

In test [12] the test system is Lolium perenne (LOLPE). The test is described as above. In outline: as §1

For the molecule `[O-][S+](CCCC(F)(F)F)c1c(Cl)cccc1Oc1ncc(Cl)cn1` (stereo not drawn) [Compound A26], in test [1], the “% phytotoxicity AMARE, pre-emergence application” value is reported as 5 (5=81 to 100%). Moreover, the “% phytotoxicity ECHCG, pre-emergence application” value in test [2] is recorded as 5 (5=81 to 100%). The “% phytotoxicity SETFA, pre-emergence application” value in the test with Setaria faberi (SETFA) [3] is reported as 5 (5=81 to 100%). Besides, the “% phytotoxicity IPOHE, pre-emergence application” value in [4] was 5 (5=81 to 100%). For the same molecule, the “% phytotoxicity SOLNI, pre-emergence application” value with Solanum nigrum (SOLNI) [5] is listed as 5 (5=81 to 100%). The “% phytotoxicity LOLPE, pre-emergence application” value in the test with Lolium perenne (LOLPE) [6] was 5 (5=81 to 100%). Besides, the “% phytotoxicity AMARE, post-emergence application” value in [7] is 5 (5=81 to 100%). The “% phytotoxicity ECHCG, post-emergence application” value in test [8] was 5 (5=81 to 100%). The “% phytotoxicity SETFA, post-emergence application” value in the test on Setaria faberi (SETFA) [9] is on record as 5 (5=81 to 100%). Also, the “% phytotoxicity IPOHE, post-emergence application” value in [10] is 5 (5=81 to 100%). Further, in the test on Solanum nigrum (SOLNI) [11], the “% phytotoxicity SOLNI, post-emergence application” value is given as 5 (5=81 to 100%). Moreover, in the test with Lolium perenne (LOLPE) [12], the “% phytotoxicity LOLPE, post-emergence application” value is 5 (5=81 to 100%).

Take `Clc1ccc(CSc2ccccc2Oc2ncc(Cl)cn2)cc1` [Compound A27]: the “% phytotoxicity AMARE, pre-emergence application” value in test [1] is given as 5 (5=81 to 100%). Besides, in test [2], the “% phytotoxicity ECHCG, pre-emergence application” value is listed as 4 (4=61 to 80%). In the test on Setaria faberi (SETFA) [3], the “% phytotoxicity SETFA, pre-emergence application” value is on record as 4 (4=61 to 80%). For the same molecule, the “% phytotoxicity IPOHE, pre-emergence application” value in test [4] is reported as 1 (1=0 to 20%). In addition, in the test with Solanum nigrum (SOLNI) [5], the “% phytotoxicity SOLNI, pre-emergence application” value was 2 (2=21 to 40%). Moreover, in the test on Lolium perenne (LOLPE) [6], the “% phytotoxicity LOLPE, pre-emergence application” value is given as 1 (1=0 to 20%). The “% phytotoxicity AMARE, post-emergence application” value in [7] is given as 5 (5=81 to 100%). The “% phytotoxicity ECHCG, post-emergence application” value in [8] is recorded as 2 (2=21 to 40%). Moreover, in the test on Setaria faberi (SETFA) [9], the “% phytotoxicity SETFA, post-emergence application” value is 2 (2=21 to 40%). Further, in test [10], the “% phytotoxicity IPOHE, post-emergence application” value was 2 (2=21 to 40%). Further, the “% phytotoxicity SOLNI, post-emergence application” value in the test with Solanum nigrum (SOLNI) [11] is listed as 3 (3=41 to 60%). Also, in the test on Lolium perenne (LOLPE) [12], the “% phytotoxicity LOLPE, post-emergence application” value was 1 (1=0 to 20%).

For the molecule `N#Cc1cccc(Oc2ncc(Cl)cn2)c1SCCCC(F)(F)F` [Compound A28, 3-(5-chloropyrimidin-2-yl)oxy-2-(4,4,4-trifluorobutylsulfanyl)benzonitrile], in test [1], the “% phytotoxicity AMARE, pre-emergence application” value was 5 (5=81 to 100%). Besides, the “% phytotoxicity ECHCG, pre-emergence application” value in [2] is 5 (5=81 to 100%). Also, the “% phytotoxicity SETFA, pre-emergence application” value with Setaria faberi (SETFA) [3] is reported as 5 (5=81 to 100%). Also, the “% phytotoxicity IPOHE, pre-emergence application” value in test [4] is on record as 5 (5=81 to 100%). Moreover, the “% phytotoxicity SOLNI, pre-emergence application” value in the test on Solanum nigrum (SOLNI) [5] is reported as 5 (5=81 to 100%). Moreover, the “% phytotoxicity LOLPE, pre-emergence application” value with Lolium perenne (LOLPE) [6] is reported as 5 (5=81 to 100%). For the same molecule, the “% phytotoxicity AMARE, post-emergence application” value in test [7] is recorded as 5 (5=81 to 100%). In [8], the “% phytotoxicity ECHCG, post-emergence application” value is 5 (5=81 to 100%). The “% phytotoxicity SETFA, post-emergence application” value in the test on Setaria faberi (SETFA) [9] is 5 (5=81 to 100%). The “% phytotoxicity IPOHE, post-emergence application” value in test [10] is 5 (5=81 to 100%). In addition, the “% phytotoxicity SOLNI, post-emergence application” value in the test with Solanum nigrum (SOLNI) [11] is 5 (5=81 to 100%). The “% phytotoxicity LOLPE, post-emergence application” value in the test on Lolium perenne (LOLPE) [12] is listed as 5 (5=81 to 100%).

On to `N#Cc1cccc(Oc2ncc(Cl)cn2)c1[S+]([O-])CCCC(F)(F)F` (stereo not drawn) [Compound A29, 3-(5-chloropyrimidin-2-yl)oxy-2-(4,4,4-trifluorobutylsulfinyl)benzonitrile], for which the “% phytotoxicity AMARE, pre-emergence application” value in [1] is 5 (5=81 to 100%). Besides, in test [2], the “% phytotoxicity ECHCG, pre-emergence application” value was 5 (5=81 to 100%). Besides, the “% phytotoxicity SETFA, pre-emergence application” value with Setaria faberi (SETFA) [3] is listed as 5 (5=81 to 100%). Moreover, in test [4], the “% phytotoxicity IPOHE, pre-emergence application” value is 5 (5=81 to 100%). In addition, the “% phytotoxicity SOLNI, pre-emergence application” value with Solanum nigrum (SOLNI) [5] is 5 (5=81 to 100%). In the test on Lolium perenne (LOLPE) [6], the “% phytotoxicity LOLPE, pre-emergence application” value is 5 (5=81 to 100%). Moreover, in [7], the “% phytotoxicity AMARE, post-emergence application” value is given as 5 (5=81 to 100%). The “% phytotoxicity ECHCG, post-emergence application” value in [8] is 5 (5=81 to 100%). In the test on Setaria faberi (SETFA) [9], the “% phytotoxicity SETFA, post-emergence application” value is on record as 5 (5=81 to 100%). The “% phytotoxicity IPOHE, post-emergence application” value in [10] is recorded as 5 (5=81 to 100%). The “% phytotoxicity SOLNI, post-emergence application” value with Solanum nigrum (SOLNI) [11] was 5 (5=81 to 100%). For the same molecule, the “% phytotoxicity LOLPE, post-emergence application” value with Lolium perenne (LOLPE) [12] is 5 (5=81 to 100%).

As for `N#Cc1cccc(Oc2ncc(Cl)cn2)c1S(=O)(=O)CCCC(F)(F)F` [Compound A30, 3-(5-chloropyrimidin-2-yl)oxy-2-(4,4,4-trifluorobutylsulfonyl)benzonitrile], in [1], the “% phytotoxicity AMARE, pre-emergence application” value is listed as 5 (5=81 to 100%). Also, in [2], the “% phytotoxicity ECHCG, pre-emergence application” value is given as 5 (5=81 to 100%). In the test with Setaria faberi (SETFA) [3], the “% phytotoxicity SETFA, pre-emergence application” value is 5 (5=81 to 100%). The “% phytotoxicity IPOHE, pre-emergence application” value in [4] was 5 (5=81 to 100%). The “% phytotoxicity SOLNI, pre-emergence application” value in the test on Solanum nigrum (SOLNI) [5] is recorded as 5 (5=81 to 100%). In addition, the “% phytotoxicity LOLPE, pre-emergence application” value with Lolium perenne (LOLPE) [6] is reported as 5 (5=81 to 100%). In addition, the “% phytotoxicity AMARE, post-emergence application” value in test [7] is listed as 5 (5=81 to 100%). Besides, the “% phytotoxicity ECHCG, post-emergence application” value in test [8] is 5 (5=81 to 100%). Moreover, in the test with Setaria faberi (SETFA) [9], the “% phytotoxicity SETFA, post-emergence application” value is listed as 5 (5=81 to 100%). For the same molecule, the “% phytotoxicity IPOHE, post-emergence application” value in [10] is listed as 4 (4=61 to 80%). The “% phytotoxicity SOLNI, post-emergence application” value in the test with Solanum nigrum (SOLNI) [11] is recorded as 5 (5=81 to 100%). The “% phytotoxicity LOLPE, post-emergence application” value with Lolium perenne (LOLPE) [12] is 5 (5=81 to 100%).
